Measurements published in patent US20100004222A1, “Amide Derivatives as Ion-Channel Ligands and Pharmaceutical Compositions and Methods of Using the Same” (Renovis, Inc., priority 2006, published 2010).

Assays:
[1] = Pharmacokinetic evaluation following intravenous and oral administration in rats; assay type: in vivo; details: male, Sprague-Dawley, plasma, rat; for clearance: non-compartmental analysis, read-out: In vivo Clearance (converted); for bioavailability: AUCinf (PO)/AUCinf (IV), dose normalized, PO 5 mg/kg, read-out: Oral Bioavailability F (%)
Procedure: Male Sprague-Dawley rats are acclimatized for at least 24 hours prior to experiment initiation. During acclimation period, all animals receive food and water ad libitum. However, food but not water is removed from the animal's cages at least 12 hours before initiation of the experiment. During the first 3 hours of experimentation, the animals receive only water ad libitum. At least three animal each are tested for intravenous and oral dosage. For intravenous formulation, compounds were dissolved (0.25 to 1 mg/mL) in a mixture of 3% dimethyl sulfoxide, 40% PEG 400 and the rest percentage of 40% Captisol in water (w/v). For oral formulation, compounds of this invention are dissolved (2 mg/mL) in a mixture of 5% of 10% Tween 80 in water (v/v) and 95% of 0.5% methyl cellulose in water (w/v). The animals are weighed before dosing. The determined body weight is used to calculate the dose volume for each animal.
Dose volume(mL/kg)=1 mg/kg/formulation concentration(mg/mL)
In instances where the formulation concentrations were less than 0.5 mg/mL, the dosing volume is about 2 mL/kg. PO rats are typically dosed through oral gavage at 2.5 mL/kg to achieve a dose level of 5 mg/kg. For IV dosing, blood samples are collected (using a pre-heparinized syringe) via the jugular vein catheter at 2, 5, 15, 30, 60, 120, 180, 300, 480, and 1440 minutes post dosing. For PO dosing, blood samples are collected (using a pre-heparinized syringe) via the jugular vein catheter before dosing and at 5, 15, 30, 60, 120, 180, 300, 480, and 1440 minutes post dosing. About 250 uL of blood is obtained at each time point from the animal. Equal volumes of 0.9% normal saline are replaced to prevent dehydration. The whole blood samples are maintained on ice until centrifugation. Blood samples are then centrifuged at 14,000 rpm for 10 minutes at 4° C. and the upper plasma layer transferred into a clean vial and stored at −80° C. The resulting plasma samples are then analyzed by liquid chromatography-tandem mass spectrometry. Following the measurement of plasma samples and dosing solutions, plasma concentration-time curve is plotted. Plasma exposure is calculated as the area under the concentration-time curve extrapolated to time infinite (AUCinf). The AUCinf is averaged and the oral bioavailability (% F) for individual animal is calculated as:
AUCinf (PO)/AUCinf (IV), normalized to their respective dose levels. The % F is reported as the mean % F of all animals dosed orally with the compound of the invention at the specified level (Table 6).
In vivo clearance in the rat was calculated by conducting a non-compartmental analysis of the pharmacokinetic profile using WinNonlin software.

[2] = molecular target: VR1 (Homo sapiens, UniProt Q8NER1); test: Calcium uptake assay, low pH (proton) agonist; assay type: cell-based; set-up: expressed in transfected cells; host or cells: T-REx HEK 293 (Invitrogen), pcDNA5/TO vector; details: HEK293; 0.3 μM compound; low pH (protons) as agonist; HEK 293 cells expressing hVR1; read-out: Low pH % Inhib. @ 0.3 μM
Sequence of VR1 (Q8NER1 whole entry): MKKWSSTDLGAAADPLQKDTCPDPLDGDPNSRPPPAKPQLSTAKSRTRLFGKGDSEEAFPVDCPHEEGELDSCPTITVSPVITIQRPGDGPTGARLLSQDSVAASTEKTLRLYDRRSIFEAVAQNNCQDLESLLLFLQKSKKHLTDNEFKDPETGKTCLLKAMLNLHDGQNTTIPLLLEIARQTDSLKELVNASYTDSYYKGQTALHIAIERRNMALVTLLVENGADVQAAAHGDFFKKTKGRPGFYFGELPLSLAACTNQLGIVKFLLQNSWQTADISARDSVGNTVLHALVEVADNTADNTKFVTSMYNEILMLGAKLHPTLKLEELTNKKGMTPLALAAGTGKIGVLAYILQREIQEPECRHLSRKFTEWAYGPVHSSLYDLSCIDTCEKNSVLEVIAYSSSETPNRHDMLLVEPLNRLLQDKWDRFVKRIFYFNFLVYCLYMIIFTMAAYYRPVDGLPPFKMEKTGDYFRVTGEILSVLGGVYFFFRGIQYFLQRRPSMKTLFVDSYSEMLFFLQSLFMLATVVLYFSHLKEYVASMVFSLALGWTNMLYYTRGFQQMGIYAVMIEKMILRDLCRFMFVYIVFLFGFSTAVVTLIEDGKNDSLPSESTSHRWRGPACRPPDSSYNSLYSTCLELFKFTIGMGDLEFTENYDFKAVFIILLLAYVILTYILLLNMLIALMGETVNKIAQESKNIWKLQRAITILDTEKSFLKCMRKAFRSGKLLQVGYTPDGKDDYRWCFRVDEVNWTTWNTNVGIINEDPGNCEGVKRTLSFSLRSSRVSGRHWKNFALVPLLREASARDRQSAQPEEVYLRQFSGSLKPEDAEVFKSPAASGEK

Row | clearance [1] [L/h/kg] | inhibition at 0.3 µM [2] [%] | bioavailability [1] [%] | Compound
1 | 1.06 |  |  | Cc1cc(/C=C/C(F)(F)F)ccc1C(=O)Nc1ccc2c(c1)OCCN2 [Compound 118]
2 |  | 0 |  | O=C(Nc1ccc2c(c1)OCCN2)c1ccc(C#CC2CC2)nc1Cl [Compound 119]
3 | 3.66 |  |  | COc1cc(/C=C/C(F)(F)F)ccc1C(=O)Nc1ccc2c(c1)OCCN2 [Compound 122]
4 | 1.92 |  |  | COc1cc(/C=C/C(F)(F)F)ccc1C(=O)Nc1ccc2c(c1)OCCO2 [Compound 123]
5 | 1.24 |  | 67 | Cc1cc(C#CC2CC2)ccc1C(=O)Nc1ccc2c(c1)OCC(CO)N2 (stereo not shown) [Compound 124]
6 | 2.02 |  | 17 | Cc1cc(C#CC2CCCC2)ccc1C(=O)Nc1ccc2c(c1)OCC(CO)N2 (stereo not shown) [Compound 125]
7 | 2.69 |  | 35 | O=C(Nc1ccc2c(c1)OCC(CO)N2)c1ccc(C#CC2CCCC2)cc1F (stereo not shown) [Compound 126]
8 | 1.85 |  | 66 | O=C(Nc1ccc2c(c1)OCC(CO)N2)c1ccc(C#CC2CC2)cc1F (stereo not shown) [Compound 127]
9 | 0.113 |  | 68 | O=C(Nc1ccc2c(c1)OCC(CO)N2)c1c(F)cc(C#CC2CC2)cc1F (stereo not shown) [Compound 129]
10 | 1.3 |  | > 100 | Cc1cc(/C=C/C(F)(F)F)ccc1C(=O)Nc1ccc2c(c1)OCC(CO)N2 (stereo not shown) [Compound 131]
11 | 5.11 |  | 63 | O=C(Nc1ccc2c(c1)OCCN2)c1ccc(/C=C/C(F)(F)F)cc1F [Compound 134]
12 | 2.32 |  | 36 | CC(C)(C)C#Cc1ccc(C(=O)Nc2ccc3c(c2)OCC(CO)N3)c(F)c1 (stereo not shown) [Compound 138]
13 | 1.89 |  | 68 | O=C(Nc1ccc2c(c1)OCC(CO)N2)c1ccc(/C=C/C(F)(F)F)cc1F (stereo not shown) [Compound 144]
14 |  | 102 |  | O=C(Nc1ccc2c(c1)OCC(CO)N2)c1ccc(C#CC2CC2)cc1Cl (stereo not shown) [Compound 156]
15 | 0.936 |  | 83 | O=C(Nc1ccc2c(c1)OCC(CO)N2)c1ccc(/C=C/C(F)(F)F)cc1Cl (stereo not shown) [Compound 157]
16 | 0.781 |  | 42 | CC(C)(C)C#Cc1ccc(C(=O)Nc2ccc3c(c2)OCC(CO)N3)c(Cl)c1 (stereo not shown) [Compound 158]
17 |  | 0 |  | CS(=O)(=O)c1cc(C#CC2CCCC2)ccc1C(=O)Nc1ccc2c(c1)OCCO2 [Compound 159]
18 | 5.12 |  | 22 | O=C(Nc1cccc2cnccc12)c1ccc(/C=C/C(F)(F)F)cc1F [Compound 160]
19 | 2.66 |  | 2 | Cc1nc2cc(NC(=O)c3ccc(C#CC(C)(C)C)cc3C)ccc2s1 [Compound 162]
20 | 6.62 |  | 53 | Cc1cc(C#CC(C)(C)C)ccc1C(=O)Nc1cccc2cnccc12 [Compound 163]
21 | 2.01 |  | 1 | CC(C)(C)C#Cc1ccc(C(=O)Nc2cnc3ccccc3c2)c(Cl)c1 [Compound 164]

Row | clearance [1] [L/h/kg] | inhibition at 0.3 µM [2] [%] | bioavailability [1] [%] | Compound
22 | 2.47 |  | 76 | CC(C)(C)C#Cc1ccc(C(=O)Nc2ccc3c(c2)OC[C@H](CO)N3)c(F)c1 [Compound 172]
23 | 2.51 |  | 1 | Cc1cc(C#CC(C)(C)C)ccc1C(=O)Nc1cnc2ccccc2c1 [Compound 181]
24 | 2.11 |  | 17 | Cc1cc(C#CC(C)(C)C)ccc1C(=O)Nc1ccc2c(c1)OC[C@@H](CO)N2 [Compound 184]
25 | 0.462 |  | 8 | Cc1nc2cc(NC(=O)c3ccc(/C=C/C(F)(F)F)cc3C)ccc2s1 [Compound 188]
26 |  | 67 |  | Cc1cc(C#CC(C)(C)C)ccc1C(=O)Nc1cccc2c(Cl)nccc12 [Compound 199]
27 | 0.598 |  | > 100 | Cc1cc(/C=C/C(F)(F)F)ccc1C(=O)Nc1ccc2cccnc2c1 [Compound 224]
28 | 2.24 |  | 39 | Cc1cc(/C=C/C(F)(F)F)ccc1C(=O)Nc1ccc2cc(CO)cnc2c1 [Compound 228]
29 | 0.916 |  | 17 | Cc1cc(/C=C/C(F)(F)F)ccc1C(=O)Nc1cnc2[nH]ccc2c1 [Compound 230]
30 |  | 0 |  | Cc1cc(/C=C/C(F)(F)F)ccc1C(=O)Nc1ccc2c(CO)n[nH]c2c1 [Compound 231]
31 |  | 43 |  | Cc1cc(/C=C/C(F)(F)F)ccc1C(=O)Nc1ccc2cc(C(=O)O)cnc2c1 [Compound 301]
32 |  | 51 |  | Cc1cc(/C=C/C(F)(F)F)ccc1C(=O)Nc1ccc2c(c1)C(=O)CCC2 [Compound 306, (E)-2-methyl-N-(8-oxo-5,6-7,8-tetrahydronaphthylen-2-yl)-4(3,3,3-trifluoroprop-1-enyl)benzamide]
33 |  | 20 |  | Cc1cc(/C=C/C(F)(F)F)ccc1C(=O)Nc1ccc2ccc(O)nc2n1 [Compound 311, (E)-N-(7-hydroxy-1,8-naphthyridin-2-yl)-2-methyl-4-(3,3,3-trifluoroprop-1-en-1)benzamide]
34 |  | 51.3 |  | Cc1cc(/C=C/C(F)(F)F)ccc1C(=O)Nc1cnc2c(c1)CC(O)CC2 (stereo not shown) [Compound 315, (E)-N-(6-hydroxy-5,6,7,8-tetrahydroquinolol-3-yl)-2-methyl-4-(3,3,3-trifluoroprop-1-enyl)benzamide]
35 |  | 52 |  | C/C(=C\c1ccc(C(=O)Nc2cnc3ccccc3c2)c(C)c1)C(F)(F)F [Compound 316]
36 |  | 47 |  | Cc1cc(/C=C/C(F)(F)F)ccc1C(=O)Nc1cnc2cc(C(C)O)cnc2c1 (stereo not shown) [Compound 320, (E)-N-(7-(1-hydroxyethyl)-1,5-naphthyridin-3-yl)-2-methyl-4-(3,33-trifluoroprop-1-enyl)benzamide]
37 |  | 41.5 |  | Cc1cc(/C=C/C(F)(F)F)ccc1C(=O)Nc1cnc2ncccc2c1 [Compound 321, (E)-2-methyl-N-(1,8-naphthyridin-3-yl)-4-(3,3,3-trifluoroprop-1-enyl)benzamide]
38 |  | 42.7 |  | CC(=O)N1CCCc2ccc(NC(=O)c3ccc(/C=C/C(F)(F)F)cc3C)cc21 [Compound 322, (E)-N-(1-acetyl-1,2,3,4-tetrahydroquinolin-7-yl)-2-methyl-4-(3,3,3-trifluoroprop-1-enyl)benzamide]
39 |  | 0.74 |  | CC(=O)c1cnc2cc(NC(=O)c3ccc(/C=C/C(F)(F)F)cc3C)cnc2c1 [Compound 324]
40 |  | 6.76 |  | Cc1cc(/C=C/C(F)(F)F)ccc1C(=O)Nc1cnc2cc(C(C)(C)O)cnc2c1 [Compound 326, (E)-N-(7-(2-hydroxypropan-2-yl)-1,5-naphthyridin-3-yl)-2-methyl-4-(3,3,3-trifluoroprop-1-enyl)benzamide]
41 |  | 0 |  | Cc1cc(/C=C/C(F)(F)F)ccc1C(=O)Nc1ccc2c(c1)N(C(=O)C1CC1)CC2 [Compound 402, (E)-N-(1-cyclopropanecarbonyl-2,3-dihydro-1H-indol-6-yl)-2-methyl-4-(3,3,3-trifluoro-prop-1-enyl)benzamide]
42 |  | 10 |  | Cc1cc(/C=C/C(F)(F)F)ccc1C(=O)Nc1ccc2c(c1)C(=O)N(CCO)C2=O [Compound 404, (E)-N-(2-(2-hydroxyethyl)-1,3-dioxoisoindolin-5-yl)-2-methyl-(3,3,3-trifluoroprop-1-enyl)benzamide]
